Among the data in patent US11485725B2, “Derivatives of piperlongumine and uses thereof” (Auransa Inc., priority 2017, dated 2022) are IC50 values, retold here.

One test has as its system MOLP-8. As to the kind of experiment: In vitro cell viability assay (CellTiter-Glo, ATP levels), multiple myeloma cells. Conditions: Homo sapiens, MOLP-8, 168 h. The class given is cell-based. As to the method: (§1) In Vitro Cell Viability Assay
(§2) The present disclosure provides a method for inhibiting cell viability, as measured by ATP levels. The method for inhibiting cell viability is drawn to contacting various cancer cells with the compounds described herein at various concentrations. The cancer cell lines were maintained in culture conditions at 37° C. in an atmosphere of 5% CO2 in air. The cells growing in an exponential growth phase were harvested and counted for plating. Compounds were incubated in two cancer cell types representing multiple myeloma (MOLP-8) and triple negative breast cancer (DU4475). Cells were plated at an optimized cell numbers per well in 96-well plates and allowed to attach to the plates overnight at approximately 80% confluency.
(§3) After addition of compounds, plates were incubated for 7-day. At the end of incubation period on day 8, media was removed and replaced with a solution of CellTiter-Glo™ reagent (Promega®) according to protocol. Luminescence was read using an EnVision® multi-label plate reader (Perkin-Elmer®), and signal intensity was calculated relative to positive and negative control wells. Cisplatin was included as the positive control. A dose-response calculation was performed in a non-linear regression fit and by using the Hill equation to calculate a concentration-response curve and 50% inhibitory concentration (IC50) values for each compound.
(§4) The average IC50 values of compounds 1-15 in multiple myeloma (MOLP-8) and triple negative breast cancer (DU4475) cells are shown in Table 1.
On the technique in general: ATP-based viability assays read luminescence as a measure of living cells.

A further test has as its system DU4475. As to the kind of experiment: In vitro cell viability assay (CellTiter-Glo, ATP levels), triple negative breast cancer cells. The class given is cell-based. Conditions: Homo sapiens, DU-4475, 168 h. As to the method: as §1, §2, §3, §4
The subject of test [1] is HCT116 (colorectal cancer) cells. As to the kind of experiment: Resazurin-based cell viability assay using colorectal cancer cells. The note with it: Homo sapiens, HCT-116, 72 hr incubation. As to the method:
Determination of Potency of Compounds in Cell Viability Assay Using Colorectal Cancer Cells
The blue dye resazurin-based assay was performed to determine cell viability and used according to manufacture protocol (Sigma®). HCT116 (colorectal cancer) cells were seeded in the DMEM medium (10% FBS serum). Approximately 1,500 cells were plated per well in 96 well plates. Cells were allowed to grow at 37° C. for 24 hr in 5% CO2 environment in a humidified incubator. Serially diluted compounds (100 μL) were added to the culture plate after 24 hr. After addition of compounds, plates were incubated for 72 hr. Experiment was terminated at the designated incubation time by replacing the medium with 100 μL of 1 mM of resazurin (Sigma®) prepared in culture medium (DMEM) and were further incubated in culture conditions for 4-6 hours. Fluorescence was recorded using a multimodal plate reader (Biotek Synergy Neo®) at an excitation wavelength of 535 nm and emission wavelength of 590 nm to obtain relative fluorescence units. Data analysis was done by subtracting the background fluorescence (medium blank) value from each reading and then normalizing with the vehicle control (DMSO treated cells) to obtain percent survival/proliferation. IC50 was calculated from percent survival values using GraphPad Prism® (see Table 1).
(In general: The colour change of resazurin is a common sign of viable cells or microbes.)

Setting [2] is: 7-day incubation, CellTiter-Glo, average values, read-out: MOLP-8 IC50.
The mark [3] stands for this setting: 7-day incubation, CellTiter-Glo, average values, read-out: DU4475 IC50.

Molecules are shown by their SMILES. Read-outs that look alike come from different tables or passages of the source.

In general, IC50 refers to the concentration needed to halve the response being measured.

In the case of `Cc1noc(/C=C/C(=O)N2CCC=CC2=O)n1` [Compound 16, (E)-1-(3-(3-methyl-1,2,4-oxadiazol-5-yl)acryloyl)-5,6-dihydropyridin-2(1H)-one], the IC50 in the test with MOLP-8 (setting [2]) came to 660 nM; in the test with DU4475 (setting [3]), 750 nM; in test [1], 960 nM.

In the case of `O=C1C=CCCN1C(=O)/C=C/c1ccc2c(n1)OCCO2` [Compound 21, (E)-1-(3-(2,3-dihydro-[1,4]dioxino[2,3-b]pyridin-6-yl)acryloyl)-5,6-dihydropyridin-2(1H)-one], the values for the IC50 (in the test with MOLP-8 (setting [2]); with DU4475 (setting [3]); in test [1]) were 680 nM, 530 nM and 3160 nM, respectively.

Take `C/C(=C\c1ncccn1)C(=O)N1CCC=CC1=O` [Compound 42, (E)-1-(2-methyl-3-(pyrimidin-2-yl)acryloyl)-5,6-dihydropyridin-2(1H)-one]: the IC50 in test [1] was 2200 nM.

For the compound `COc1cc(/C=C/C(=O)N2CC(C)(C)C=CC2=O)cc2c1OCCO2` [Compound 30, (E)-1-(3-(8-methoxy-2,3-dihydrobenzo[b][1,4]dioxin-6-yl)acryloyl)-5,5-dimethyl-5,6-dihydropyridin-2(1H)-one], the figures for the IC50 (in the test with MOLP-8 (setting [2]); in the test on DU4475 (setting [3]); in test [1]) were 2800 nM, 5500 nM and 9900 nM, respectively.

For the compound `O=C1C=CCCCN1C(=O)/C=C/c1cnccn1` [Compound 6, (E)-1-(3-(pyrazin-2-yl)acryloyl)-1,5,6,7-tetrahydro-2H-azepin-2-one], the IC50 in the test on MOLP-8 (setting [2]) amounted to 440 nM; with DU4475 (setting [3]) it was 560 nM; in test [1], 2400 nM.

As to `O=C1C=CCCN1C(=O)/C=C/C1CCN(Cc2ccc(F)cc2)CC1` [Compound 60, 1-{3-[1-(4-fluorobenzyl)piperidin-4-yl]prop-2-enoyl}-5,6-dihydropyridin-2(1H)-one], the results for the IC50 with MOLP-8 (setting [2]) and with DU4475 (setting [3]) were 340 nM and 590 nM, respectively.

Regarding `O=C1C=CCCN1C(=O)/C=C/C1CCN(CC2CC2)CC1` [Compound 44, (E)-1-(3-(1-(cyclopropylmethyl)piperidin-4-yl)acryloyl)-5,6-dihydropyridin-2(1H)-one], the IC50 in the test with MOLP-8 (setting [2]) turned out to be 490 nM; in the test with DU4475 (setting [3]), 1050 nM; in test [1], 1350 nM.

For the compound `CC(C)(C)OC(=O)N1CCC(/C=C/C(=O)N2CCC=CC2=O)CC1` [Compound 19, tert-butyl (E)-4-(3-oxo-3-(6-oxo-3,6-dihydropyridin-1(2H)-yl)prop-1-en-1-yl)piperidine-1-carboxylate], the IC50 was found to be 410 nM in the test on MOLP-8 (setting [2]), 820 nM with DU4475 (setting [3]) and 1970 nM in test [1].

Regarding `O=C1C=CCCN1C(=O)/C=C/C1CCN(c2ncccn2)CC1` [Compound 67, 1-{(2E)-3-[1-(pyrimidin-2-yl)piperidin-4-yl]prop-2-enoyl}-5,6-dihydropyridin-2(1H)-one], the values for the half-maximal inhibitory concentration (IC50) (in the test with MOLP-8 (setting [2]); in the test with DU4475 (setting [3]); in test [1]) were 760 nM, 960 nM and 3400 nM, respectively.

Regarding `O=C1C=CCCCN1C(=O)/C=C/c1ccc2c(n1)OCCO2` [Compound 31, (E)-1-(3-(2,3-dihydro-[1,4]dioxino[2,3-b]pyridin-6-yl)acryloyl)-1,5,6,7-tetrahydroazepin-2-one], the IC50 in the test on MOLP-8 (setting [2]) is 270 nM; in the test with DU4475 (setting [3]), 560 nM; in test [1], 1550 nM.

Consider `O=C1C=CCCCN1C(=O)/C=C/c1cncc2ccccc12` [Compound 12, (E)-1-(3-(isoquinolin-4-yl)acryloyl)-1,5,6,7-tetrahydro-2H-azepin-2-one], for which the IC50 with MOLP-8 (setting [2]) stood at 890 nM; with DU4475 (setting [3]), 600 nM; in test [1], 960 nM.

As for `CC1C=CC(=O)N(C(=O)/C=C/c2ncccn2)C1` (stereo not shown) [Compound 43, (E)-5-methyl-1-(3-(pyrimidin-2-yl)acryloyl)-5,6-dihydropyridin-2(1H)-one], the half-inhibitory concentration (IC50) came out at 280 nM in the test with MOLP-8 (setting [2]), 530 nM with DU4475 (setting [3]) and 1270 nM in test [1].

For the compound `O=C1C=CCCN1C(=O)/C=C/c1cnc2c(n1)OCCO2` [Compound 65, (E)-1-(3-(2,3-dihydro-[1,4]dioxino[2,3-b]pyrazin-6-yl)acryloyl)-5,6-dihydropyridin-2(1H)-one], the IC50 in test [1] was 2250 nM.

Regarding `CC(C)(O)CN1CCC(/C=C/C(=O)N2CCC=CC2=O)CC1` [Compound 59, 1-{(2E)-3-[1-(2-hydroxy-2-methylpropyl)piperidin-4-yl]prop-2-enoyl}-5,6-dihydropyridin-2(1H)-one], the IC50 in the test with MOLP-8 (setting [2]) was determined as 390 nM; with DU4475 (setting [3]), 840 nM.

With `O=C1C=CCCN1C(=O)/C=C/c1ccnnc1` [Compound 39, (E)-1-(3-(pyridazin-4-yl)acryloyl)-5,6-dihydropyridin-2(1H)-one], the IC50 with MOLP-8 (setting [2]) is 300 nM; in the test with DU4475 (setting [3]), 650 nM.

As for `O=C1C=CCCN1C(=O)/C=C/C1CCN(c2ccc(F)cc2)CC1` [Compound 61, 1-{3-[1-(4-fluorophenyl)piperidin-4-yl]prop-2-enoyl}-5,6-dihydropyridin-2(1H)-one], the figures for the IC50 in the test with MOLP-8 (setting [2]) and in the test with DU4475 (setting [3]) were 680 nM and 950 nM, respectively.

For `COc1cc(/C=C/C(=O)N2CCC=CC2=O)cc(OC)c1OC` [Piperlongumine, 1-[(E)-3-(3,4,5-trimethoxyphenyl)prop-2-enoyl]-2,3-dihydropyridin-6-one], the IC50 is around 1010 nM with MOLP-8 (read-out: average IC50 in multiple myeloma (MOLP-8) cells) and around 1240 nM with DU4475 (read-out: average IC50 in triple negative breast cancer (DU4475) cells).

On to `O=C1C=CCCN1C(=O)/C=C/c1ncc2ccccc2n1` [Compound 48, (E)-1-(3-(quinazolin-2-yl)acryloyl)-5,6-dihydropyridin-2(1H)-one], for which the IC50 was 290 nM in the test with MOLP-8 (setting [2]) and 350 nM in the test with DU4475 (setting [3]).

`O=C(c1ccccc1)N1CCC(/C=C/C(=O)N2CCC=CC2=O)CC1` [Compound 54, 1-[(2E)-3-(1-benzoylpiperidin-4-yl)prop-2-enoyl]-5,6-dihydropyridin-2(1H)-one]: in test [1], the IC50 was 1400 nM.

For the compound `O=C1C=CCCN1C(=O)/C=C/C1CCN(S(=O)(=O)c2ccc(F)cc2)CC1` [Compound 51, (E)-1-(3-(1-(4-fluorophenylsulfonyl)piperidin-4-yl)acryloyl)-5,6-dihydropyridin-2(1H)-one], the IC50 with MOLP-8 (setting [2]) came out at 560 nM; with DU4475 (setting [3]) it was 570 nM.

For `Cn1cc(/C=C/C(=O)N2CCC=CC2=O)c2ccccc21` [Compound 52, 1-[(2E)-3-(1-methyl-1H-indol-3-yl)prop-2-enoyl]-5,6-dihydropyridin-2(1H)-one], the figures for the IC50 in the test with MOLP-8 (setting [2]) and in the test with DU4475 (setting [3]) were 1000 nM and 1520 nM, respectively.

In the case of `C/C(=C\c1ncccn1)C(=O)N1CCC=C(Cl)C1=O` [Compound 46, (E)-3-chloro-1-(2-methyl-3-(pyrimidin-2-yl)acryloyl)-5,6-dihydropyridin-2(1H)-one], the IC50 in test [1] worked out at 970 nM.

Turning to `CC1=CCCN(C(=O)/C=C/c2cnn(C)c2)C1=O` [Compound 93, (E)-3-methyl-1-(3-(1-methyl-1H-pyrazol-4-yl)acryloyl)-5,6-dihydropyridin-2(1H)-one], the IC50 in test [1] is 88300 nM.

With `CN1CCC(/C=C/C(=O)N2CCC=CC2=O)CC1` [Compound 41, (E)-1-(3-(1-methylpiperidin-4-yl)acryloyl)-5,6-dihydropyridin-2(1H)-one], in test [1], the IC50 is 1240 nM.

As for `CC1(/C=C/C(=O)N2CCC=CC2=O)CCN(C(=O)OC(C)(C)C)CC1` [Compound 64, tert-butyl (E)-4-methyl-4-(3-oxo-3-(6-oxo-3,6-dihydropyridin-1(2H)-yl)prop-1-en-1-yl)piperidine-1-carboxylate], the IC50 in test [1] was determined as 4320 nM.

As to `O=C1C=C(Cl)CCN1C(=O)/C=C/c1ncccn1` [Compound 36, (E)-4-chloro-1-(3-(pyrimidin-2-yl)acryloyl)-5,6-dihydropyridin-2(1H)-one], in test [1], the IC50 came to 2970 nM.

Regarding `O=C(c1ccc(F)cc1)N1CCC(/C=C/C(=O)N2CCC=CC2=O)CC1` [Compound 50, (E)-1-(3-(1-(4-fluorobenzoyl)piperidin-4-yl)acryloyl)-5,6-dihydropyridin-2(1H)-one], the IC50 in the test on MOLP-8 (setting [2]) came out at 410 nM; with DU4475 (setting [3]), 500 nM.

On to `COc1cc(/C=C/C(=O)N2C(=O)C=CCC2(C)C)cc(OC)c1OC` [Compound 94, (E)-6,6-dimethyl-1-(3-(3,4,5-trimethoxyphenyl)acryloyl)-5,6-dihydropyridin-2(1H)-one], for which the IC50 in test [1] was determined as 3150 nM.

`CS(=O)(=O)N1CCC(/C=C/C(=O)N2CCC=CC2=O)CC1` [Compound 47, 1-{(2E)-3-[1-(methylsulfonyl)piperidin-4-yl]prop-2-enoyl}-5,6-dihydropyridin-2(1H)-one]: the IC50 in test [1] turned out to be 3140 nM.
